According to article PMC7211193, “Evaluation of absorption, distribution, metabolism, and excretion of [^14C]-rucaparib, a poly(ADP-ribose) polymerase inhibitor, in patients with advanced solid tumors” (Investigational New Drugs, 2019):
“And” between values parts separate entries of the source, which are not always exact repeats. Identical values can stand only once.

How the values were obtained:
[1] = Plasma pharmacokinetics of unchanged rucaparib (LC-MS/MS) after a single oral dose of [14C]-rucaparib 600 mg; assay type: in vivo, human
Description: (§1) Six patients received a single oral dose of [^14C]-rucaparib 600 mg (approximately 5.18 MBq or 140 μCi) on day 1 after fasting for 10 h and were confined at the study site for the collection of blood samples and excreta for a maximum of 12 days.
(§2) Blood samples were collected in K2 ethylenediaminetetraacetic acid (K2-EDTA) tubes at the following time points: 0 (predose), 1, 2, 3, 4, 8, 12, 24, 48, 72, 96, 120, and 144 h after administration. Blood samples were taken via an indwelling intravenous catheter or by direct vein puncture into appropriate tubes. Aliquots of blood samples were centrifuged at 1600–2000×g for 10 min at 4 °C, and supernatants were collected for plasma samples. All plasma and blood samples were stored at −70 °C until analysis. Plasma and blood samples were evaluated for total radioactivity (TRA) by liquid scintillation (LSC), parent drug concentrations by liquid chromatography (LC) with tandem mass spectrometry (MS/MS) analyses, and metabolite profiling by LC coupled to diode array ultraviolet (UV) detection and MS or radioactivity detection.
Plasma concentrations of rucaparib were determined by Q^2 Solutions (Ithaca, NY, USA) using a validated LC-MS/MS method as previously described. The concentration range for quantitation was 5–10,000 ng/mL.
(§3) Blood and plasma TRA data and the plasma concentration of rucaparib were used to determine the Cmax, tmax, AUC from time zero to time of last measurable concentration (AUC0-t), and AUC from time zero to infinity (AUC0-inf), apparent volume of distribution (Vd/F), apparent clearance (CL/F), and terminal half-life (t1/2). Phoenix WinNonlin software version 6.3 or higher (Certara, Princeton, NJ, USA) was used to run a noncompartmental method analysis on the PK data.

[2] = Total radioactivity (TRA) pharmacokinetics in plasma and blood by liquid scintillation counting; assay type: in vivo, human; conditions: for Cmax, total radioactivity in plasma: patients N = 6
Description: as §1, §2
TRA analysis was performed on a Liquid Scintillation Counter Tri-Carb Model 3100TR (PerkinElmer). Aliquots of blood (300 μL), plasma (250 μL), and urine (1 mL) were transferred to scintillation vials. Blood samples were incubated at ≥60 °C with SOLVABLE (1 mL). After cooling to room temperature, EDTA (0.1 M, 100 μL) and hydrogen peroxide (225 μL) were added to dissolve blood cells, reduce foaming, and decrease color intensity. Finally, after incubation at ≥45 °C and ≥60 °C, Ultima Gold (≥5-fold) was added, and the samples were analyzed with LSC. For urine samples, Ultima Gold (≥5-fold) was added, and the samples were analyzed with LSC.
as §3

[3] = Safety assessment (CTCAE v4.03 adverse events); assay type: in vivo, human
Description: The safety of rucaparib was evaluated during the study. The National Cancer Institute Common Terminology Criteria for Adverse Events (CTCAE) grading system (version 4.03) was used to describe the severity of the adverse events (AEs) that occurred. Clinical laboratory, vital sign, 12-lead ECG, and physical examinations were also part of the safety assessment.

[4] = Metabolite identification by LC-MS/MS in plasma, urine and feces; assay type: in vivo, human; conditions: F feces, P plasma, U urine
Description: Metabolite profiling and identification were performed on an LC system (Agilent) coupled to an LTQ Orbitrap mass spectrometer (Thermo Electron, Waltham, MA, USA) in combination with offline TopCount (LC-MS-TopCount) or online Radiomatic 625TR (LC-MS-Radiomatic; PerkinElmer). Proposed structures of the metabolites were based on accurate mass (<5 ppm) and comparison of mass spectral data of parent compound rucaparib and metabolite standard M324. The Radiomatic 625TR flow detector, equipped with a 200 μL flow cell, was operated using scintillation cocktail (Ultima-Flo M) delivered at a flow rate of 1 mL/min. Chromatography was done using a Phenomenex (Torrance, CA, USA) Luna Phenyl-Hexyl column (250 × 2 mm, 5 μm, 100 Å) at ambient temperature during the sample analysis. The mobile phase was (A) 0.05% TFA in water and (B) 0.05% TFA in acetonitrile, with a 0.2 mL/min flow rate. The gradient was as follows: 5% B over 2.1 min, to 20% B in 1.0 min, to 35% B in 16.9 min, isocratic at 35% B for 5 min, to 95% B over 5 min, and reduced to 5% B over 1 min, with total run time 45 min.
The LTQ Orbitrap mass spectrometer was equipped with an electrospray ionization interface and operated in positive ionization mode for metabolite profiling and identification. Mass spectra were acquired in full scan (MS) (m/z 150–1500) and data-dependent scan modes. Mass spectrometer parameter settings were: spray voltage, +5.0 kV; capillary temperature, 350 °C; sheath gas, 80 (arbitrary unit); auxiliary gas, 30 (arbitrary unit); activation Q, 0.25; activation time, 30 msec; resolution, 7500; and collision energy, 35 eV.
The structures of the metabolites were identified by LC-MS/MS based on comparisons of mass spectral fragmentation patterns with those produced by the parent compound. Further confirmation of the identities of the metabolites was based on the elemental composition determined from accurate mass analyses using an Orbitrap high-resolution mass spectrometer.
The structures of the major metabolites found in plasma, urine, and feces were also confirmed by comparisons with the synthetic reference standard M324.

[5] = cited from earlier work
[6] = unchanged rucaparib by LC-MS/MS, single oral 600 mg, N = 6, mean ± SD
[7] = single oral [14C]-rucaparib 600 mg, N = 6, mean ± SD
[8] = single oral [14C]-rucaparib 600 mg, N = 6, mean ± SD, listed as rucaparib
[9] = single oral [14C]-rucaparib 600 mg, N = 6, median (range)
[10] = single oral 600 mg, versus fasted

CNCc1ccc(-c2[nH]c3cc(F)cc4c3c2CCNC4=O)cc1 [Rucaparib, rucaparib]
AUC0-24h ratio of unlabeled rucaparib to TRA in plasma ([1]; LC-MS/MS versus LSC): 0.412
AUC(0-inf) ([1]; human, plasma, unchanged rucaparib by LC-MS/MS, single oral 600 mg, N = 6, mean ± SD, read-out: AUC0-inf, rucaparib concentration in plasma): 9340 ± 3480 ng·h/mL
AUC(0-t) ([1]; human, plasma, unchanged rucaparib by LC-MS/MS, single oral 600 mg, N = 6, mean ± SD, read-out: AUC0-t, rucaparib concentration in plasma): 8950 ± 3230 ng·h/mL
Cmax ([1]; human, plasma, unchanged rucaparib by LC-MS/MS, single oral 600 mg, N = 6, mean ± SD, read-out: Cmax, rucaparib concentration in plasma): 428 ± 154 ng/mL
Vd/F ([1]; human, plasma, unchanged rucaparib by LC-MS/MS, single oral 600 mg, N = 6, mean ± SD, read-out: Vd/F, rucaparib concentration in plasma): 2300 ± 490 L
AUC0-24h/AUC0-inf ratio, plasma unchanged rucaparib ([1]; in vivo): 0.537
Mean CL/F of rucaparib relative to that of TRA ([1]; plasma): approximately 3.8 fold
Mean Vd/F of rucaparib relative to that of TRA ([1]; plasma): ~2.8 fold
CL/F, rucaparib concentration in plasma [1, 6]: 73.9 ± 45.5 L/h
t1/2, rucaparib concentration in plasma [1, 6]: 25.9 ± 10.1 h
t1/2, rucaparib concentration in plasma ([1]; unchanged rucaparib by LC-MS/MS, single oral 600 mg, N = 6, mean ± SD, listed as rucaparib): > 25 h
tmax, rucaparib concentration in plasma ([1]; unchanged rucaparib by LC-MS/MS, single oral 600 mg, N = 6, median (range)): 4 (0.933–8.00) h
AUC0-24h/AUC0-inf ratio, blood TRA ([2]; in vivo): 0.563
AUC0-24h/AUC0-inf ratio, plasma TRA ([2]; in vivo): 0.461
AUC0-inf, total radioactivity in blood [2, 7]: 25,500 ± 5510 ng Eq h/mL
AUC0-inf, total radioactivity in plasma [2, 7]: 30,000 ± 7810 ng Eq h/mL
AUC0-t, total radioactivity in blood [2, 7]: 18,100 ± 5460 ng Eq h/mL
AUC0-t, total radioactivity in plasma [2, 7]: 24,100 ± 8580 ng Eq h/mL
Blood to plasma ratio of total radioactivity, AUC0-inf [2, 7]: 0.781 ± 0.041
Blood to plasma ratio of total radioactivity, Cmax [2, 7]: 1.00 ± 0.12
CL/F, total radioactivity in blood [2, 7]: 22.6 ± 2.22 L/h
CL/F, total radioactivity in plasma [2, 7]: 19.6 ± 4.83 L/h
Cmax, total radioactivity in blood [2, 7]: 882 ± 355 ng Eq/mL
Vd/F, total radioactivity in blood [2, 7]: 911 ± 246 L
Vd/F, total radioactivity in plasma [2, 7]: 814 ± 129 L
t1/2, total radioactivity in blood [2, 7]: 28.3 ± 8.49 h
t1/2, total radioactivity in plasma [2, 7]: 30.4 ± 8.89 h
Blood to plasma ratio of total radioactivity, Cmax [2, 8]: 1.0
t1/2, total radioactivity in blood [2, 8]: > 25 h
t1/2, total radioactivity in plasma [2, 8]: > 25 h and 30.4 h
tmax, total radioactivity in blood [2, 9]: 4 (0.933–8.00) h
tmax, total radioactivity in plasma [2, 9]: 4 (0.933–8.00) h
tmax, total radioactivity in blood ([2]; single oral [14C]-rucaparib 600 mg, N = 6, median (range), listed as [^14C]-rucaparib): approximately 4 h
tmax, total radioactivity in blood ([2]; single oral [14C]-rucaparib 600 mg, N = 6, median (range), listed as rucaparib): 4 h
Cmax, total radioactivity in plasma ([2]; single oral [14C]-rucaparib 600 mg, mean ± SD): 880 ± 309 ng Eq/mL
Cmax, total radioactivity in plasma ([2]; single oral [14C]-rucaparib 600 mg, mean ± SD, listed as rucaparib): 880 ng Eq/mL
Total treatment-emergent AEs (TEAEs) ([3]; events, in four of six patients, single oral 600 mg): five
Relation, severity and seriousness of TEAEs ([3]; investigator assessment): No TEAE was considered to be related to the study drug by the investigators, had a severity of more than CTCAE grade 2, led to a withdrawal of the patient, or was a serious AE
Patients with TEAE vomiting ([3]; two events in two of six patients): 33.3%
Matrix in which identified [4]: P, U, F
Accumulation at steady state ([5]; 600 mg BID): approximately four-fold
Time of dosing to achieve steady state ([5]; 600 mg BID): 1 week
Dose proportionality of plasma exposure ([5]; 40–500 mg QD and 240–840 mg BID): dose proportional
Median tmax, QD dosing ([5]; 40–500 mg once daily, Study 10): 1.5 to 6.0 h
Median tmax, BID dosing ([5]; 240–840 mg twice daily, Study 10): 1.5 to 4.0 h
Apparent steady-state clearance, BID dosing ([5]; Study 10): 26.2 to 58.6 L/h
Apparent steady-state clearance, QD dosing ([5]; Study 10): 26.7 to 47.5 L/h
Increase of AUC by a high-fat meal [5, 10]: 38%
Increase of Cmax by a high-fat meal [5, 10]: 20%
t1/2 in a previous clinical trial ([5]; single oral dose, dose range 40–500 mg): 11 to 29.8 h
